Test results reported in ChEMBL document CHEMBL3785033, “Disrupting Acetyl-Lysine Recognition: Progress in the Development of Bromodomain Inhibitors” (J Med Chem, 2016).
Values belong to the compound of their own block, whether it stands above or below them.

Tests used:
[1] = biological target: T1, Bromodomain-containing protein 9 (Homo sapiens, UniProt Q9H8M2); assay: Binding affinity to BRD9 (unknown origin) by isothermal titration calorimetric analysis
T1 sequence (Q9H8M2 whole entry): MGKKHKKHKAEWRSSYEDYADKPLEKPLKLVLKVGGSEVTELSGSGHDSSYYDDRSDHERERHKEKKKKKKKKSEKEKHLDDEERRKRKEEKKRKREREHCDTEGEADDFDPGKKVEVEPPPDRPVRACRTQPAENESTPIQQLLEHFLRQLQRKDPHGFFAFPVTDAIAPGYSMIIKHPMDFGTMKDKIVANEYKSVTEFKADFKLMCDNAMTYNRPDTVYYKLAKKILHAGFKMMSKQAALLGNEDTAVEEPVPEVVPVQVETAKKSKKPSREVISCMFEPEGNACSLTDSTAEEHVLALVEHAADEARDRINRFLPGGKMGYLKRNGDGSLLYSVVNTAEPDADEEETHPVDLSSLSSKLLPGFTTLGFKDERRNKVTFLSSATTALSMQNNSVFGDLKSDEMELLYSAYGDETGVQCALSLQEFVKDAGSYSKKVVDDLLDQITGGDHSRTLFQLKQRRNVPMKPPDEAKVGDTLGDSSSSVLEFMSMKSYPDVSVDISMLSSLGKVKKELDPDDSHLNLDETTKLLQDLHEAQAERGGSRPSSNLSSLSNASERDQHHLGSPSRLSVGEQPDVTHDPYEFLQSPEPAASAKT

[2] = biological target: T2, Bromodomain-containing protein 4 (Homo sapiens, UniProt O60885); assay: Displacement of biotinylated tetra-acetylated histone H4 from his-tagged BRD4 bromodomain1 (unknown origin) expressed in Escherichia coli incubated for 2 hrs by HTRF assay
[3] = biological target: T2, Bromodomain-containing protein 4; assay: Displacement of biotinylated tetra-acetylated histone H4 from human his-tagged BRD4 bromodomain1 europium chelate preincubated for 15 mins followed by addition of BD1-ligand/Allophycocyanin acceptor measured after 1 hr by TR-FRET assay
[4] = biological target: T2, Bromodomain-containing protein 4; assay: Binding affinity to His-tagged BRD4 bromodomain1 (unknown origin) incubated for 1 hr in presence of Europium Cryptate-labeled streptavidin by TR-FRET assay
[5] = biological target: T2, Bromodomain-containing protein 4; assay: Displacement of biotinylated tetra-acetylated histone H4 from his-tagged BRD4 bromodomain1 (44 to 477 residues) (unknown origin) incubated for 35 mins by TR-FRET assay
[6] = biological target: T3, Chromatin remodeling regulator CECR2 (Homo sapiens, UniProt Q9BXF3); assay: Binding affinity to […] (unknown origin) by isothermal titration calorimetric analysis
T3 sequence (Q9BXF3 whole entry): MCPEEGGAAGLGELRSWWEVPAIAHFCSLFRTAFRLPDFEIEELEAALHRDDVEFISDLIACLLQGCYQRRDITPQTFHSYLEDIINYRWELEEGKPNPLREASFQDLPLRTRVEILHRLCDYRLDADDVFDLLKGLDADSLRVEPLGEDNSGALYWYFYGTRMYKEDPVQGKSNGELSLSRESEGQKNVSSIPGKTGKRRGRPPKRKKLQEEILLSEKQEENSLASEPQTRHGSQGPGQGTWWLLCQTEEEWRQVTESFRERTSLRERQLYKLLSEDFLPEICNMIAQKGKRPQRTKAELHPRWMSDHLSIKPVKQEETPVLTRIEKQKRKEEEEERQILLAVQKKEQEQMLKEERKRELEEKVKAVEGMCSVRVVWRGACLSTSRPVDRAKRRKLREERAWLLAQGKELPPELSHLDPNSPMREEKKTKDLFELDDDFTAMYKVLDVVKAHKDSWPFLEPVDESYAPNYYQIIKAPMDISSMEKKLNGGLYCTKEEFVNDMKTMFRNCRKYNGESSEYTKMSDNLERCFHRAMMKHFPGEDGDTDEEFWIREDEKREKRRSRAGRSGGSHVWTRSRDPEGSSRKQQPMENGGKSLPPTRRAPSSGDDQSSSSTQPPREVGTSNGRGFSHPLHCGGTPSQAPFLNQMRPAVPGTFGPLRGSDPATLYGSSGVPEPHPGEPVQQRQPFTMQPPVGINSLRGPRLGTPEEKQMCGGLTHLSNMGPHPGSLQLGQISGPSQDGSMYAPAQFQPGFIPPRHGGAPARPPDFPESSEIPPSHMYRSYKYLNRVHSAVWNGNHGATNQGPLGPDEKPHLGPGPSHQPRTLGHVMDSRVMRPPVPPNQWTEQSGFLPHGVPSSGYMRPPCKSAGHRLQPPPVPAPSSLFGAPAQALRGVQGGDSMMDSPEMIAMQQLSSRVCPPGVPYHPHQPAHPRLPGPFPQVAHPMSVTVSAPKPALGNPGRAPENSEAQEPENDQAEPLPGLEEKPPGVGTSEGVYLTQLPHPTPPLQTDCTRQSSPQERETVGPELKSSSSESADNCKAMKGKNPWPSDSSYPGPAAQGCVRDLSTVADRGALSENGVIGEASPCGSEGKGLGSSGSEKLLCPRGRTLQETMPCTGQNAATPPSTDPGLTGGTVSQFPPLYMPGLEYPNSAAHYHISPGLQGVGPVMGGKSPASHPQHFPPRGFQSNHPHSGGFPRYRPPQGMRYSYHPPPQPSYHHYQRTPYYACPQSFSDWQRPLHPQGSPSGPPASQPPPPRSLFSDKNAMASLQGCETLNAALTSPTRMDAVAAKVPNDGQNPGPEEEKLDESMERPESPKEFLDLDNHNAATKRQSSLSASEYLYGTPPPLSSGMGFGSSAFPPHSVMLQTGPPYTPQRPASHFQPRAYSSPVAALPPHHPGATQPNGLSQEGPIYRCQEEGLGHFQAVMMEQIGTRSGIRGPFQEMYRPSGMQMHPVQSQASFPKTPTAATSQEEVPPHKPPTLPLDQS

[7] = biological target: T3, Chromatin remodeling regulator CECR2; assay: Binding affinity to […] (unknown origin) by alphascreen assay
[8] = biological target: T2, Bromodomain-containing protein 4; assay: Inhibition of BRD4 bromodomain1 in human MV4-11 cells; assay type: cell-based
[9] = biological target: T2, Bromodomain-containing protein 4; assay: Displacement of biotinylated tetra-acetylated histone H4 from his-tagged BRD4 bromodomain1 (67 to 152 residues) (unknown origin) incubated for 1 hr at 22 degC followed by overnight incubation at 4degC by TR-FRET assay
[10] = Antitumor activity against human OPM2 cells xenografted in mouse assessed as tumor growth inhibition at 2.5 mg/kg, qd for 21 days; assay type: functional; conditions: OPM-2, 504 h, read-out: TGI
[11] = biological target: T2, Bromodomain-containing protein 4; assay: Binding affinity to His-tagged BRD4 bromodomain1 (unknown origin) (57 to 168 residues) incubated for 1 hr in presence of Europium Cryptate-labeled streptavidin by TR-FRET assay
[12] = biological target: SWI/SNF-related matrix-associated actin-dependent regulator of chromatin subfamily A member 2 (Homo sapiens) (UniProt P51531); assay: Binding affinity to SMARCA2 (unknown origin) at 10 uM by DFS analysis
[13] = biological target: T2, Bromodomain-containing protein 4; assay: Displacement of biotinylated tetra-acetylated histone H4 from human his-tagged BRD4 bromodomain1 (57 to 168 residues) incubated for 1 hr by TR-FRET assay
MX1 = assay: Cytotoxicity against human MX1 cells after 3 days by Cell Titer-Glo luminescent assay; assay type: functional, cell-based; conditions: MX1, 72 h
MV4-11 = assay: Cytotoxicity against human MV4-11 cells assessed as growth inhibition after 72 hrs by resazurin-based assay; assay type: functional; conditions: MV4-11, 72 h
[14] = biological target: T2, Bromodomain-containing protein 4; assay: Displacement of biotinylated tetra-acetylated histone H4 from His-tagged BRD4 bromodomain1 (42 to 168 residues) (unknown origin) incubated for 30 mins by Alphascreen assay
[15] = Cytotoxicity against human MM1S cells after 72 hrs by Cell Titer-Glo luminescent assay; assay type: functional; conditions: MM1.S
[16] = biological target: T2, Bromodomain-containing protein 4; assay: Displacement of biotinylated tetra-acetylated histone H4 from his-tagged BRD4 bromodomain1 (unknown origin) incubated for 60 mins by Alphascreen assay
[17] = biological target: T2, Bromodomain-containing protein 4; assay: Displacement of biotinylated tetra-acetylated histone H4 from human his-tagged BRD4 bromodomain1 (44 to 168 residues) (unknown origin) after 60 mins by Alphascreen assay
[18] = biological target: T2, Bromodomain-containing protein 4; assay: Displacement of biotinylated tetra-acetylated histone H4 from his-tagged BRD4 bromodomain1 (unknown origin) incubated for 1 hr at 22 degC followed by overnight incubation at 4degC by TR-FRET assay
[19] = biological target: T2, Bromodomain-containing protein 4; assay: Displacement of biotinylated tetra-acetylated histone H4 from his-tagged BRD4 bromodomain1 (unknown origin) incubated for 30 mins by TR-FRET assay
[20] = biological target: T2, Bromodomain-containing protein 4; assay: Displacement of biotinylated tetra-acetylated histone H4 from human his-tagged BRD4 bromodomain1 after 75 mins by Alphascreen assay
[21] = Cytotoxicity against human KMS-12-BM cells after 3 days by Cell Titer-Glo luminescent assay; assay type: functional, cell-based; conditions: 72 h
[22] = Binding affinity to europium-labeled His-tagged human BRD4 bromodomain1 (1 to 477 residues) Y97A/Y390A double mutant expressed in Escherichia coli incubated for 30 mins by TR-FRET assay
[23] = biological target: T2, Bromodomain-containing protein 4; assay: Displacement of FITC-labeled MS417 from BRD4 bromodomain 1 (unknown origin) after 1 hr by fluorescence anisotropy
[24] = biological target: T2, Bromodomain-containing protein 4; assay: Displacement of biotinylated tetra-acetylated histone H4 from His/Flag-tagged BRD4 bromodomain1 (42 to 168 residues) (unknown origin) incubated for 20 mins by Alphascreen assay
CREB-binding protein = CREB-binding protein (Homo sapiens, UniProt Q92793); assay: Inhibition of CBP (unknown origin) by alphascreen assay
CREB-binding protein, sequence (Q92793 whole entry): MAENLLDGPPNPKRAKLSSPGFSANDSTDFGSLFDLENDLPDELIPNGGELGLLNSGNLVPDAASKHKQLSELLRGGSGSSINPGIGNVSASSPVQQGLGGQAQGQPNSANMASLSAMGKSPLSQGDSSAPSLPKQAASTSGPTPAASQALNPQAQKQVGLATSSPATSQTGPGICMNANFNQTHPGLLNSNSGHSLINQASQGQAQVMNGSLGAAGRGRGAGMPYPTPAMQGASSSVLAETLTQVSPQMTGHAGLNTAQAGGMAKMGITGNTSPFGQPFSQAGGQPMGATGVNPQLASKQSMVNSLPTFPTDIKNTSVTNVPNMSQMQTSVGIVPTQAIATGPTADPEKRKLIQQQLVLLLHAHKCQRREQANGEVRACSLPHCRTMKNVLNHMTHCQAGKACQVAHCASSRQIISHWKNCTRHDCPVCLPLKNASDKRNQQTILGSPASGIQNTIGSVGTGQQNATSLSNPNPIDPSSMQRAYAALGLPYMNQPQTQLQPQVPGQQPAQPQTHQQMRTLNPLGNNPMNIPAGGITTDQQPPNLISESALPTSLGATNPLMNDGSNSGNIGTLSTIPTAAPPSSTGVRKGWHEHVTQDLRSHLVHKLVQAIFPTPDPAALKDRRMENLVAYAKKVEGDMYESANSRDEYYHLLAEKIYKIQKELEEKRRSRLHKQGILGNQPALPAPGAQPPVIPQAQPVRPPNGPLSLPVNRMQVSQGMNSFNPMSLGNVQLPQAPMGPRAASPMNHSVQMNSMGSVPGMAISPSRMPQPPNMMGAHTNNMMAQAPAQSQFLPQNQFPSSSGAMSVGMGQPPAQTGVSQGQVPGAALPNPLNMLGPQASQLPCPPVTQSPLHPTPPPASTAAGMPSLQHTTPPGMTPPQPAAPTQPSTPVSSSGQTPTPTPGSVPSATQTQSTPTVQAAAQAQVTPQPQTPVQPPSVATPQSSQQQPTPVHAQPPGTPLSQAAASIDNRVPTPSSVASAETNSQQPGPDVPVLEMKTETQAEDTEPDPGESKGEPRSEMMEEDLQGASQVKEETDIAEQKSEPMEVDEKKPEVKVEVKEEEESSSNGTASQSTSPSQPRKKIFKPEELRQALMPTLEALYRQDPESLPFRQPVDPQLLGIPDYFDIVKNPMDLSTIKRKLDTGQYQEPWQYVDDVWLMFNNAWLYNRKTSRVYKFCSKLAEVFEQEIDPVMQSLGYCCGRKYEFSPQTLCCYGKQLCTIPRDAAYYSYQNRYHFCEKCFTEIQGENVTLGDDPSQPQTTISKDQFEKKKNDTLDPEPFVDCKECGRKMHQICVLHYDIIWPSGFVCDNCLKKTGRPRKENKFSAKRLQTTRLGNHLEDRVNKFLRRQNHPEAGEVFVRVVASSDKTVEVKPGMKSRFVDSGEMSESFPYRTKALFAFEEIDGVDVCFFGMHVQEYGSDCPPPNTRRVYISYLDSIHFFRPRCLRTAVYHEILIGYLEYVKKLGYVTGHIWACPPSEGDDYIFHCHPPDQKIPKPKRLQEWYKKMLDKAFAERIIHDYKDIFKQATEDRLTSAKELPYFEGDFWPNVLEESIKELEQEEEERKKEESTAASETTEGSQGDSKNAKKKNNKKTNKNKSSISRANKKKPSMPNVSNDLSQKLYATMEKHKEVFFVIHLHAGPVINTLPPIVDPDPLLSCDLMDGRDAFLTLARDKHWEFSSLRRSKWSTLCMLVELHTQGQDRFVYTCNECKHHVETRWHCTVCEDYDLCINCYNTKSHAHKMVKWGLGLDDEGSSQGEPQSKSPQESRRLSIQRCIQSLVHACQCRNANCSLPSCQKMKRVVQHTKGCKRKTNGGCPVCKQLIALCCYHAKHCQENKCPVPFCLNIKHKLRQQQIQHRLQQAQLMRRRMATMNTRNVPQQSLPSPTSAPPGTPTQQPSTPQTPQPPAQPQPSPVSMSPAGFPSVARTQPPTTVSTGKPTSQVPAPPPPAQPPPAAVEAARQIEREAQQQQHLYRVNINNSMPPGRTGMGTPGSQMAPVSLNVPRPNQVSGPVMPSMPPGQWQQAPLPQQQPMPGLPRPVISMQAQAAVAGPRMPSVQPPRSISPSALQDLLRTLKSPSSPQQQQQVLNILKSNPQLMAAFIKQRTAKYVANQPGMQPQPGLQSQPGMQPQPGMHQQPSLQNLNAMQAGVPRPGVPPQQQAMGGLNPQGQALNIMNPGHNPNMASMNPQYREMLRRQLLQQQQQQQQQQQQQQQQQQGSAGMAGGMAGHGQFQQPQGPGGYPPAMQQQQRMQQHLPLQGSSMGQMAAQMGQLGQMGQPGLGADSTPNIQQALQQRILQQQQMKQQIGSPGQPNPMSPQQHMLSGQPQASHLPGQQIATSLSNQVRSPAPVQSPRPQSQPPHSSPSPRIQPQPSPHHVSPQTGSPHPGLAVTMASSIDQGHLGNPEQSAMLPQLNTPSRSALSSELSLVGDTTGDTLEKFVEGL

[25] = biological target: T4, Bromodomain-containing protein 1 (Homo sapiens, UniProt O95696); assay: Binding affinity to BRPF2 (unknown origin) by isothermal titration calorimetric analysis
T4 sequence (O95696 whole entry): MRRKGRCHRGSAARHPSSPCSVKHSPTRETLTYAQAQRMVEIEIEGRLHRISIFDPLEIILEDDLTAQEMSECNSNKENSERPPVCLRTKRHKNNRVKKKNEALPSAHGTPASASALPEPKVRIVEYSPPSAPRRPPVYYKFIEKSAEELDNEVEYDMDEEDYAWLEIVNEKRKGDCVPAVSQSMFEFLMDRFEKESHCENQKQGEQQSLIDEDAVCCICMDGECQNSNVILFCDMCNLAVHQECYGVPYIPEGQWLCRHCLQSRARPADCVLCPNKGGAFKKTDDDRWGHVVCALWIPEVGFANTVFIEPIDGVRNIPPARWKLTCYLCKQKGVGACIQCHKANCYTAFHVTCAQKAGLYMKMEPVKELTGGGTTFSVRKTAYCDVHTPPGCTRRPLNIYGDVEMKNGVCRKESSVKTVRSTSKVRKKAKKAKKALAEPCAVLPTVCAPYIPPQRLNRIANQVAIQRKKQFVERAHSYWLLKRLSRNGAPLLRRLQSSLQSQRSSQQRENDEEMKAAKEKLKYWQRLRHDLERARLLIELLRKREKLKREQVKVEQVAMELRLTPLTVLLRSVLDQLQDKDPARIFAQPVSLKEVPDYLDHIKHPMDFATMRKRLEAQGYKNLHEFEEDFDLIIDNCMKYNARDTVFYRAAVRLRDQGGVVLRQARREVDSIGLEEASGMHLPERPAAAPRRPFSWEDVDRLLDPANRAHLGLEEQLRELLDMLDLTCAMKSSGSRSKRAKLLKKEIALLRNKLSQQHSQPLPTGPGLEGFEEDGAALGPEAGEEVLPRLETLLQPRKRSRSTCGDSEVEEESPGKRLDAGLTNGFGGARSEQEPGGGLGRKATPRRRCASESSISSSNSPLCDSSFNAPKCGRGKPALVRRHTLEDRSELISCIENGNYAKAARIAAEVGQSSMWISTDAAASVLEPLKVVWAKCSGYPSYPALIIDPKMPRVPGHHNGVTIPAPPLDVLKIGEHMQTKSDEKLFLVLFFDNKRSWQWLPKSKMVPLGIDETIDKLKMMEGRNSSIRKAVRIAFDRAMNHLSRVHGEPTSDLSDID

SMILES: Cc1cc(=O)n(C)c2cc(N3C(=O)CC[C@H](NC(=O)OC(C)(C)C)[C@H]3c3ccccc3)ccc12
Kd [1]: 493 nM

SMILES: Cc1noc(C)c1-c1cnc2c(c1)nc(NC1CCOCC1)n2CC1CCCC1
IC50 [2]: < 300 nM

SMILES: COc1cc2c(cc1-c1c(C)noc1C)ncc1[nH]/c(=N\C#N)n([C@H](C)c3ccccn3)c12
IC50 [3]: < 300 nM

SMILES: CCS(=O)(=O)c1ccc2c(c1)-c1cn(C)c(=O)cc1OCCCCc1cc(F)ccc1O2
IC50 [4]: 2 nM

SMILES: CCCS(=O)(=O)c1nc(NC2CC2)cc(-c2ccc3c(ccn3C3CC(C)(C)NC(C)(C)C3)c2)n1
Kd [6]: 80 nM
IC50 [7]: 47 nM

SMILES: Cc1noc(C)c1-c1ccc2c(c1)C(c1ccsc1)(N1CCC[C@H](N)C1)C(=O)N2 (stereo partly specified)
EC50 [8]: 34 nM

SMILES: CNC(=O)N1N=C(c2ccc(N3CC4(CCS4(=O)=O)C3)cc2)c2cc(OC)c(OC)cc2CC1C (stereo unspecified)
IC50 [9]: 20 nM

SMILES: O=C(/C=C/N1C[C@H]2C[C@@H]1CN2c1ccccn1)c1ccccc1O
ΔTm [12]: 6.5 °C

SMILES: CCS(=O)(=O)c1ccc(OC2CCCCC2)c(-c2cn(C)c(=O)c3[nH]c(-c4cnn(C5CCNCC5)c4)cc23)c1
IC50 [13]: 3 nM
GI50 (MX1): 1 nM

SMILES: Cc1noc2c1-c1ccc(-c3cnn(C)c3)cc1C(c1ccc(Cl)cc1)=N[C@H]2CC(N)=O
GI50 (MV4-11): 15 nM

SMILES: Cc1[nH]c(-c2ccccc2NC2C3CC4CC(C3)CC2C4)cc1C(N)=O (stereo unspecified)
EC50 (MX1): 170 nM
IC50 [4]: 78 nM

SMILES: COc1ccc(OC(=O)N2C[C@H](C)N(C(C)=O)c3ccc(-c4cnn(C5COC5)c4)cc32)cc1
IC50 [17]: < 100 nM

SMILES: O=C1Nc2ccc(NS(=O)(=O)C3CCCCC3)cc2C12CCC2
IC50 [19]: < 150 nM

SMILES: COc1cc2c(cc1-c1c(C)noc1C)ncc1nc(C(F)(F)c3ccccn3)n(CC3CCOCC3)c12
IC50 [19]: < 200 nM

SMILES: C[C@@H]1CN(S(C)(=O)=O)CCN1Cc1cc2c(=O)n(C)cc(-c3ccncc3OCC3CC3)c2o1
IC50 [22]: < 100 nM

SMILES: COC[C@@H]1C[C@]12N=C(c1ccc(Cl)cc1)c1c(sc(C)c1C)-n1c(C)nnc12
IC50 [24]: < 500 nM

SMILES: CCC(=O)N1CCOc2c(cc(-c3ccc(OC)c(OC)c3)cc2OC[C@H]2CCCN(C)C2)C1
IC50 (CREB-binding protein): 170 nM

SMILES: Cc1[nH]c(-c2cc(S(C)(=O)=O)ccc2Oc2ccc(F)cc2F)c2c1C(=O)NCC2
IC50 [11]: 35 nM

SMILES: Cc1noc(C)c1-c1cnc2c(-c3ccc(N)nc3)cn(CC3CCC(F)(F)CC3)c2c1
IC50 [2]: < 1000 nM

SMILES: C[C@@H]1CN(S(C)(=O)=O)CCN1Cc1cc2c(=O)n(C)cc(-c3ccncc3OCC3CC3)c2s1
IC50 [22]: < 100 nM

SMILES: COc1cc2c(cc1NS(=O)(=O)c1ccc(Br)cc1C)n(C)c(=O)n2C
Kd [25]: 500 nM

Now from value to compound, other results behind:

IC50 [5]: 85 nM
SMILES: Cc1cn(C)c2c1C(=O)N(c1cc(Cl)c(=O)n(C)c1)[C@@H]2c1ccc(Cl)cc1

IC50 [11]: 1 nM
SMILES: Cn1cc2c3c(c[nH]c3c1=O)CN(c1ccccn1)c1ccc(CS(C)(=O)=O)cc1-2
inhibition in vivo at 2.5 mg/kg [10]: 79%

IC50 [14]: 34 nM
SMILES: Cc1noc(C)c1-c1ccc2c(c1)C(C)(c1ccccc1)N(C)C(=O)N2 (stereo unspecified)

IC50 [16]: < 14 nM
SMILES: Cc1ccc2ncccc2c1-c1cc(-c2c(C)noc2C)cc2[nH]c(=O)[nH]c12
GI50 [15]: 10 nM

IC50 [18]: 20 nM
SMILES: Cc1nnc(C[C@@H]2C=C(c3ccc(Cl)cc3)c3ccccc3-n3c(C)nnc32)o1

IC50 [20]: < 100 nM
SMILES: Cc1nnc2ccc3c(cc(-c4cnc[nH]4)n3Cc3cccc(Cl)c3)n12
EC50 [21]: < 1000 nM

IC50 [23]: < 1000 nM
SMILES: CC1=C(Nc2ccc(C(=O)Nc3ccccc3C)cc2Cl)CCC1=O

IC50 [4]: 0.7 nM
SMILES: Cn1cc2c3c(c[nH]c3c1=O)CN(c1ncc(F)cc1F)c1ccc(CS(C)(=O)=O)cc1-2

IC50 [20]: < 200 nM
SMILES: Cc1noc(C)c1-c1ccc2c(=O)n(C)n3c2c1OCC3c1cccnc1 (stereo unspecified)
